What was measured:
[1] = 298.15 K; 101 kPa; Liquid
[2] = xn = mol fraction of the nth substance listed; conditions: 298.15 K, 101 kPa, Liquid

O=C1CCCN1 [2-pyrrolidinone]
[1]
Conditions | mass density [kg/m3] | speed of sound [m/s]
– | 1107.52 | 1633.7

O=C1CCCN1 [2-pyrrolidinone] + O
[2]
Conditions | mass density [kg/m3] | speed of sound [m/s]
x1 = 0.03793 | 1015.26 | 1577.4
x1 = 0.05001 | 1020.61 | 1597.6
x1 = 0.07966 | 1032.48 | 1632.1
x1 = 0.1093 | 1042.93 | 1670
x1 = 0.122 | 1046.78 | 1684.5
x1 = 0.1582 | 1056.77 | 1708
x1 = 0.1789 | 1062.24 | 1716.5
x1 = 0.2155 | 1070.34 | 1726.6
x1 = 0.2352 | 1074.91 | 1732.1
x1 = 0.2473 | 1077.08 | 1735.2
x1 = 0.2794 | 1081.92 | 1737.3
x1 = 0.3497 | 1088.62 | 1735.5
x1 = 0.4199 | 1093.46 | 1727.8
x1 = 0.5013 | 1097.41 | 1715.8
x1 = 0.549 | 1099.18 | 1708.8
x1 = 0.6133 | 1101.6 | 1698.7
x1 = 0.6705 | 1102.82 | 1683.4
x1 = 0.7037 | 1103.16 | 1678.5
x1 = 0.8117 | 1105.88 | 1658
x1 = 0.8353 | 1106.12 | 1654.6
x1 = 0.8593 | 1106.38 | 1651.3
x1 = 0.8813 | 1106.59 | 1647.9
x1 = 0.9413 | 1107.13 | 1640.7
x1 = 1 | 1107.52 | 1633.7

CC(=O)N(C)C [N,N-dimethylethanamide]
[1]
Conditions | mass density [kg/m3] | speed of sound [m/s]
– | 936.34 | 1455.9

CC(=O)N(C)C [N,N-dimethylethanamide] + O
[2]
Conditions | mass density [kg/m3] | speed of sound [m/s]
x1 = 0.00083 | 996.94 | 1499.8
x1 = 0.00163 | 996.87 | 1502.4
x1 = 0.03959 | 995.84 | 1616.2
x1 = 0.055 | 996.37 | 1645.5
x1 = 0.06456 | 996.62 | 1663.2
x1 = 0.08126 | 997.29 | 1678.6
x1 = 0.1 | 997.94 | 1700.3
x1 = 0.1208 | 998.5 | 1717.9
x1 = 0.1447 | 998.68 | 1730.7
x1 = 0.1714 | 998.55 | 1737.9
x1 = 0.2012 | 997.61 | 1749.4
x1 = 0.2381 | 995.72 | 1734.5
x1 = 0.2761 | 992.03 | 1719.7
x1 = 0.3245 | 988.32 | 1703.6
x1 = 0.3783 | 985.12 | 1682.1
x1 = 0.4137 | 982.41 | 1669
x1 = 0.452 | 979.26 | 1653.4
x1 = 0.4832 | 975.57 | 1638.2
x1 = 0.5372 | 969.73 | 1605.4
x1 = 0.583 | 965.29 | 1586.8
x1 = 0.6496 | 959.34 | 1559.2
x1 = 0.7074 | 953.42 | 1534.2
x1 = 0.7633 | 949.72 | 1522
x1 = 0.8342 | 946.12 | 1489
x1 = 0.9053 | 940.96 | 1482.2
x1 = 1 | 936.34 | 1455.9

CNC=O [N-methylformamide]
[1]
Conditions | mass density [kg/m3] | speed of sound [m/s]
– | 999.06 | 1431.9

CNC=O [N-methylformamide] + O
[2]
Conditions | mass density [kg/m3] | speed of sound [m/s]
x1 = 0.01572 | 999.1 | 1518.7
x1 = 0.03276 | 1001.38 | 1538.8
x1 = 0.05095 | 1003.6 | 1557.2
x1 = 0.07104 | 1005.91 | 1574.1
x1 = 0.09226 | 1007.87 | 1582.7
x1 = 0.1156 | 1010.1 | 1591.3
x1 = 0.141 | 1011.91 | 1601.6
x1 = 0.1714 | 1013.58 | 1606.1
x1 = 0.2005 | 1014.89 | 1606.2
x1 = 0.2339 | 1015.73 | 1603.4
x1 = 0.2714 | 1016.31 | 1598.8
x1 = 0.3047 | 1016.34 | 1594
x1 = 0.3185 | 1016.28 | 1589.3
x1 = 0.3367 | 1016.3 | 1583.7
x1 = 0.3615 | 1015.86 | 1573
x1 = 0.3853 | 1015.45 | 1560.7
x1 = 0.4166 | 1014.47 | 1551.9
x1 = 0.4456 | 1013.64 | 1542.9
x1 = 0.4785 | 1012.83 | 1534.2
x1 = 0.5109 | 1011.92 | 1526.4
x1 = 0.5497 | 1010.88 | 1514.7
x1 = 0.5805 | 1010.04 | 1507.5
x1 = 0.5913 | 1009.49 | 1502.6
x1 = 0.6164 | 1008.9 | 1497.2
x1 = 0.6335 | 1008.22 | 1493.1
x1 = 0.681 | 1006.72 | 1480.6
x1 = 0.7323 | 1005.35 | 1469
x1 = 0.779 | 1004.51 | 1462.9
x1 = 0.8279 | 1003.34 | 1454.5
x1 = 0.8535 | 1002.54 | 1449.5
x1 = 0.8763 | 1001.72 | 1446.5
x1 = 0.917 | 1001.03 | 1441.1
x1 = 0.9285 | 1000.72 | 1440.2
x1 = 1 | 999.06 | 1431.9

CN1CCCC1=O [N-methylpyrrolidone]
[1]
Conditions | mass density [kg/m3] | speed of sound [m/s]
– | 1028.23 | 1531.5

CN1CCCC1=O [N-methylpyrrolidone] + O
[2]
Conditions | mass density [kg/m3] | speed of sound [m/s]
x1 = 0.02533 | 1004.51 | 1573.6
x1 = 0.06006 | 1014.28 | 1646.8
x1 = 0.08026 | 1020.63 | 1684.4
x1 = 0.1008 | 1025.71 | 1724.7
x1 = 0.1191 | 1030.16 | 1731.2
x1 = 0.1399 | 1034.69 | 1745.2
x1 = 0.1596 | 1038.09 | 1747.7
x1 = 0.1779 | 1040.14 | 1749.2
x1 = 0.1964 | 1041.52 | 1751.7
x1 = 0.2203 | 1042.98 | 1750.7
x1 = 0.2399 | 1044.35 | 1750.1
x1 = 0.2602 | 1045.7 | 1745.3
x1 = 0.278 | 1046 | 1741.8
x1 = 0.2987 | 1046.27 | 1735.4
x1 = 0.3296 | 1046.23 | 1725.6
x1 = 0.3794 | 1045.76 | 1707.8
x1 = 0.4497 | 1044.33 | 1687.1
x1 = 0.4986 | 1043.54 | 1670
x1 = 0.5494 | 1041.35 | 1651.2
x1 = 0.5978 | 1039.92 | 1633.6
x1 = 0.649 | 1037.65 | 1621
x1 = 0.6998 | 1035.76 | 1610.2
x1 = 0.7893 | 1032.74 | 1587.7
x1 = 0.8199 | 1031.82 | 1574.4
x1 = 0.8333 | 1031.01 | 1568.3
x1 = 0.8826 | 1030.54 | 1563.8
x1 = 0.8976 | 1029.93 | 1558.4
x1 = 0.9553 | 1028.92 | 1552.2
x1 = 1 | 1028.23 | 1531.5

CN(C)C=O [dimethylformamide]
[1]
Conditions | mass density [kg/m3] | speed of sound [m/s]
– | 943.94 | 1457.5

CN(C)C=O [dimethylformamide] + O
[2]
Conditions | mass density [kg/m3] | speed of sound [m/s]
x1 = 0.01233 | 996.44 | 1526.3
x1 = 0.0266 | 996.21 | 1555.7
x1 = 0.0276 | 996.23 | 1554.2
x1 = 0.04154 | 996.18 | 1582.3
x1 = 0.05803 | 996.38 | 1607.4
x1 = 0.07593 | 996.62 | 1628.8
x1 = 0.09542 | 996.84 | 1647.5
x1 = 0.1173 | 997.02 | 1659
x1 = 0.1412 | 996.93 | 1675.5
x1 = 0.1677 | 996.02 | 1684.6
x1 = 0.1975 | 995.1 | 1688.2
x1 = 0.23 | 993.87 | 1687.8
x1 = 0.2866 | 990.18 | 1676.6
x1 = 0.3139 | 989.17 | 1669.3
x1 = 0.3771 | 984.28 | 1647.7
x1 = 0.4247 | 981.19 | 1629.1
x1 = 0.4494 | 979.47 | 1620.3
x1 = 0.4755 | 977.79 | 1610.1
x1 = 0.4955 | 976.4 | 1599.5
x1 = 0.5203 | 974.98 | 1592
x1 = 0.5336 | 974.17 | 1585.7
x1 = 0.555 | 972.69 | 1572.1
x1 = 0.5806 | 970.92 | 1565.8
x1 = 0.6169 | 968.9 | 1559
x1 = 0.637 | 967.32 | 1550.5
x1 = 0.6551 | 965.83 | 1545.2
x1 = 0.6931 | 963.35 | 1538.2
x1 = 0.7172 | 961.78 | 1527.7
x1 = 0.7373 | 960.6 | 1519.7
x1 = 0.753 | 959.56 | 1514.8
x1 = 0.7666 | 958.73 | 1512.3
x1 = 0.8037 | 956.19 | 1504.3
x1 = 0.8126 | 955.54 | 1501.2
x1 = 0.8469 | 953.57 | 1493
x1 = 0.8694 | 952.12 | 1491.4
x1 = 0.8911 | 950.68 | 1488.4
x1 = 0.925 | 948.01 | 1476.6
x1 = 0.9661 | 946.28 | 1469.1
x1 = 1 | 943.94 | 1457.5

NC=O [formamide]
[1]
Conditions | mass density [kg/m3] | speed of sound [m/s]
– | 1128.78 | 1597.3

NC=O [formamide] + O
[2]
Conditions | mass density [kg/m3] | speed of sound [m/s]
x1 = 0.01258 | 1001.58 | 1507
x1 = 0.01991 | 1004.13 | 1512.2
x1 = 0.0361 | 1009.48 | 1522.8
x1 = 0.05028 | 1013.93 | 1530.9
x1 = 0.06473 | 1018.25 | 1538.3
x1 = 0.07977 | 1022.53 | 1545.1
x1 = 0.09437 | 1026.49 | 1551
x1 = 0.1125 | 1031.16 | 1557.5
x1 = 0.1347 | 1036.54 | 1564.5
x1 = 0.1596 | 1042.19 | 1571
x1 = 0.1946 | 1049.41 | 1578.3
x1 = 0.2295 | 1056.08 | 1584.1
x1 = 0.2548 | 1060.55 | 1587.5
x1 = 0.2731 | 1063.6 | 1589.5
x1 = 0.2919 | 1066.61 | 1591.4
x1 = 0.3343 | 1072.9 | 1594.7
x1 = 0.3711 | 1077.91 | 1596.7
x1 = 0.4046 | 1082.13 | 1598.1
x1 = 0.4552 | 1088.06 | 1599.4
x1 = 0.4884 | 1091.6 | 1600
x1 = 0.5025 | 1093.05 | 1600.2
x1 = 0.5225 | 1094.97 | 1600.3
x1 = 0.5564 | 1098.27 | 1600.5
x1 = 0.595 | 1101.68 | 1600.5
x1 = 0.6298 | 1104.65 | 1600.5
x1 = 0.6714 | 1107.95 | 1600.2
x1 = 0.702 | 1110.28 | 1600
x1 = 0.723 | 1111.82 | 1599.8
x1 = 0.7544 | 1113.99 | 1599.6
x1 = 0.78 | 1115.76 | 1599.4
x1 = 0.8094 | 1117.67 | 1599.1
x1 = 0.8358 | 1119.42 | 1598.8
x1 = 0.8752 | 1121.79 | 1598.6
x1 = 0.917 | 1124.23 | 1598.2
x1 = 0.9465 | 1125.98 | 1598
x1 = 0.9702 | 1127.29 | 1597.9
x1 = 1 | 1128.78 | 1597.3
